Measured values as given in patent US20230302036A1, “COMPOSITIONS FOR TREATMENT OF SPINAL MUSCULAR ATROPHY” (priority 2020, published 2023).

Tests used:
[1] = system: SMA; details: VPA plus carnitine; cited from earlier work
[2] = system: SMA mice (Smn-/-; SMN2 2TG/0); assay: Growth curves (body weight gain) of severe SMA mice; assay type: in vivo, mouse; details: ASO1 at P0 and P1 and/or VPA 10 µg/g s.c.
Description: Kaplan-Meier survival plot (FIG. 4A) and growth curves (FIG. 4B) of SMA mice, following subcutaneous administration at P0 and P1 of 16.8 µg ASO1 (n=18) or saline (n=14), one subcutaneous dose before P3 of 10 µg per g of body weight VPA (n=12), or both treatments together (n=20). ASO1-treated Smn^+/- heterozygote littermates (n=15) served as controls. Scramble (Ctrl) (n=12, 40 trials), VPA (n=13, 50 trials), ASO1 (n=11, 50 trials), ASO1 + VPA (n=17, 68 trials), and untreated heterozygotes (n=12, 36 trials). Statistical significance was analyzed by two-way repeated measures ANOVA. P < 0.05 was considered statistically significant; data are represented as mean + SD. In the righting-reflex test, the time it took a mouse to right itself […] on a flat surface was measured. In the grip-strength test, the angle at which the pups fell from a tablet with a rough to which they held on by their forelimbs was measured.
FIGS. 7A-H show ASO1 and TSA combined treatment in mice. Kaplan-Meier survival plot (FIG. 7A) and growth curves (FIG. 7B) of SMA mice after subcutaneous administration at P0 and P1 of 16.8 µg ASO1 (n=20) or vehicle (n=12), one subcutaneous dose of 10 µg per g of body weight TSA (n=15) at P2, or both treatments together (n=24), are shown. ASO1-treated heterozygotes (n=18) served as controls. Statistical significance was analyzed by two-way repeated measures ANOVA. […]

[3] = system: SMN2 pre-mRNA; assay: Transcriptional activation by RT-qPCR of SMN2 pre-mRNA in HEK293T cells; assay type: cell-based, human; details: HDAC inhibitor alone
Description: (FIG. 5D and FIG. 5E) Transcriptional activation was assessed by RT-qPCR. (FIG. 5F) HEK293T cells with 3 nM ASO1 and 10 mM VPA for 24 hr. Bars indicate mean transcriptional activation ± SD ratios between precursors of SMN2 and GAPDH as the control gene. Statistical significance was analyzed by two-tailed Student’s t-tests. P < 0.05 was considered statistically significant.
HEK293T, HeLa, and SMA type I homozygous and carrier fibroblasts 3813 and 3814 (Coriell Cell Repositories, Camden, New Jersey, United States) were grown in Dulbecco’s modified Eagle’s medium (DMEM) containing 4.5 g of glucose and 10% fetal bovine serum (Gibco) at 37° C. Cells were plated at a density of 2×10^5 cells per well in 12-well plates 24 hr before transfection. siRNA (25 nM), plasmid (500 ng), or ASO (25 nM) transfections were performed 24 hr after cells were plated, using 3 µl of Lipofectamine 2000 (Thermo Fisher Scientific) per well in 12-well plates. 24-48 h later, cells were treated with Trichostatin A (Sigma, T8552), Valproic Acid (Sigma, P4543), 5-Azacytidine (Sigma, A2385) or vehicle for the indicated time, and harvested for downstream procedures.

CCCC(CCC)C(=O)O [VPA, valproic acid]
clinical effectiveness in SMA [1]: failed to demonstrate effectiveness
body weight gain in the surviving mice [2]: lack of an effect per se
levels of SMN2 pre-mRNA (promoter-proximal amplicon) [3]: increased the levels of SMN2 pre-mRNA
